We go through twelve compounds from patent US8124624B2, “Substituted sulfonamide compounds” (Gruenenthal GmbH, priority 2008, dated 2012).

One experiment concerns the target T1, human B1R (Homo sapiens, UniProt P46663).
T1 construct: expressed in transfected cells; host or cells: CHO K1 cells (hB1R cells)
T1 sequence (P46663 1-353): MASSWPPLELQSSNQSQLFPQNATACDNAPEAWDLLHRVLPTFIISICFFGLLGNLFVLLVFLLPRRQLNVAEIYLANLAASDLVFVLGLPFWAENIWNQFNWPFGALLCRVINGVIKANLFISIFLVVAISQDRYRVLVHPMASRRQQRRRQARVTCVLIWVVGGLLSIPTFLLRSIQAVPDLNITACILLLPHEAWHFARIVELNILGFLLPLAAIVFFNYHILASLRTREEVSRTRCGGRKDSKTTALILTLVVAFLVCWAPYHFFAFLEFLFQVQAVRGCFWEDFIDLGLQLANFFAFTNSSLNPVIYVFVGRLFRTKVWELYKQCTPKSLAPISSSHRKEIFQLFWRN
Description: FLIPR Ca2+ influx assay, B1R antagonism, human (hB1R CHO K1 cells). As to conditions: test substance 10 μM, CHO K1 cells stably transfected with human B1R, agonist Lys-Des-Arg9-bradykinin at EC80, % inhibition compared with maximum achievable inhibition; for inhibition at 10 µM: read-out: B1R antagonism, human [10 μM] % inhibition. It is filed as cell-based. The protocol:
The agonistic or antagonistic action of substances can be quantified on the bradykinin receptor 1 (B1R) of the species human and rat using ectopically expressing cell lines (CHO K1 cells) and with the aid of a Ca^2+-sensitive dye (Fluo-4) using a fluorescent imaging plate reader (FLIPR). The indication in % activation is based on the Ca^2+ signal after addition of Lys-Des-Arg^9-bradykinin (0.5 nM) or Des-Arg^9-bradykinin (100 nM). Antagonists lead to suppression of the Ca^2+ influx after the addition of the agonist. % Inhibition compared with the maximum achievable inhibition is indicated.
The agonistic or antagonistic action of substances can be determined on the bradykinin receptor 1 (B1R) of the species human and rat using the following assay. According to this assay, the Ca^2+ influx through the channel is quantified with the aid of a Ca^2+-sensitive dye (Fluo-4 type, Molecular Probes Europe BV, Leiden, Netherlands) using a Fluorescent Imaging Plate Reader (FLIPR, Molecular Devices, Sunnyvale, USA).
Chinese hamster ovary cells (CHO K1 cells) which have been stably transfected with the human B1R gene (hB1R cells) or with the B1R gene of the rat (rB1R cells) are used. For functional studies, the cells are plated out on black 96-well plates having a clear base (BD Biosciences, Heidelberg, Germany or Greiner, Frickenhausen, Germany) in a density of 20,000-35,000 cells/well. The cells are incubated overnight at 37° C. and with 5% CO2 in culture medium (hB1R cells: Nutrient Mixture Ham's F12, Gibco Invitrogen GmbH, Karlsruhe, Germany or DMEM, Sigma-Aldrich, Taufkirchen, Germany; rB1R cells: D-MEM/F12, Gibco Invitrogen GmbH, Karlsruhe, Germany), with 10 vol. % FBS (fetal bovine serum, Gibco Invitrogen GmbH, Karlsruhe, Germany or PAN Biotech GmbH, Aidenbach, Germany).
On the following day, the cells are loaded for 60 minutes at 37° C. with 2.13 μM Fluo-4 (Molecular Probes Europe BV, Leiden, Netherlands) in HBSS buffer (Hank's buffered saline solution, Gibco Invitrogen GmbH, Karlsruhe, Germany) […] (Sigma-Aldrich, Taufkirchen, Germany) and 10 mM HEPES (Sigma-Aldrich, Taufkirchen, Germany). The plates are then washed twice with HBSS buffer, and HBSS buffer additionally containing 0.1% BSA (bovine serum albumin; Sigma-Aldrich, Taufkirchen, Germany), 5.6 mM glucose and 0.05% gelatin (Merck KGaA, Darmstadt, Germany) is added to the plates. After incubation for a further 20 minutes at room temperature, the plates are inserted into the FLIPR for Ca^2+ measurement.
Alternatively, washing is carried out with buffer A (15 mM HEPES, 80 mM NaCl, 5 mM KCl, 1.2 mM CaCl2, 0.7 mM MgSO4, 2 g/l glucose, 2.5 mM probenecid) followed by loading with buffer A with added 2.5 μM Fluo-4 and 0.025% Pluronic F127 (Sigma-Aldrich, Taufkirchen, Germany). The cells are then washed twice with buffer A and incubated for 30 minutes at room temperature with buffer A additionally containing 0.05% BSA and 0.05% gelatin and are then inserted into the FLIPR for Ca^2+ measurement.
The Ca^2+-dependent fluorescence is measured before and after the addition of substances (λex=488 nm, λem=540 nm). Quantification is carried out by measuring the highest fluorescence intensity (FC, fluorescence counts) over time.
The FLIPR protocol consists of two substance additions. Test substances (10 μM) are first pipetted onto the cells and the Ca^2+ influx is compared with the control (hB1R: Lys-Des-Arg^9-bradykinin >=50 nM; rB1R: Des-Arg^9-bradykinin 10 μM). This gives the activation in %, based on the Ca^2+ signal after addition of Lys-Des-Arg^9-bradykinin (>=50 nM) or Des-Arg^9-bradykinin (10 μM). After 10-20 minutes' incubation, Lys-Des-Arg^9-bradykinin (hB1R) or Des-Arg^9-bradykinin (rB1R) is applied in the concentration of the EC80, and the influx of Ca^2+ is likewise determined. Antagonists lead to suppression of the Ca^2+ influx. The % inhibition compared with the maximum achievable inhibition is calculated. […]

The target of another experiment is T2, B1R of the rat (Rattus norvegicus, UniProt P97583).
T2 construct: expressed in transfected cells; host or cells: CHO K1 cells (rB1R cells)
T2 sequence (P97583 1-337): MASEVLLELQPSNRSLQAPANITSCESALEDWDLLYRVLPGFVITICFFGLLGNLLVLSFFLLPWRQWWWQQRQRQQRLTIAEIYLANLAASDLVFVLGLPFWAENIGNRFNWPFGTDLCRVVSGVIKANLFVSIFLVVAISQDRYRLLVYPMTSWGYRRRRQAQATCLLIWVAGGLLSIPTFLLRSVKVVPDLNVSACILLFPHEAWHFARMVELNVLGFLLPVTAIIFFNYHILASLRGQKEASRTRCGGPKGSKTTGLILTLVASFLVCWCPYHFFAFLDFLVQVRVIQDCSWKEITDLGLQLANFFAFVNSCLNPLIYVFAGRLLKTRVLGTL
Description: FLIPR Ca2+ influx assay, B1R antagonism, rat (rB1R CHO K1 cells). It is filed as cell-based. As to conditions: test substance 10 μM, CHO K1 cells stably transfected with rat B1R, agonist Des-Arg9-bradykinin at EC80, % inhibition compared with maximum achievable inhibition; for inhibition at 10 µM: read-out: B1R antagonism, rat [10 μM] % inhibition. A digest of the protocol: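 CHO K1 cells stably expressing human or rat B1R were loaded with Fluo-4, and Ca^2+ fluorescence was read on a FLIPR. After 10–20 min with test substance, agonist was added at EC80: Lys-Des-Arg^9-bradykinin for hB1R, Des-Arg^9-bradykinin for rB1R. % inhibition is relative to maximal inhibition; IC50 from multiple concentrations, n=2–3, N≥2.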

As to `COc1cc(C)c(S(=O)(=O)N2CCCCC2COCC(=O)N2CCC(CCCN3CCCC3)(c3cccnc3)CC2)c(C)c1` (stereo not drawn) [Example 16, 2-((1-(4-Methoxy-2,6-dimethylphenylsulfonyl)piperidin-2-yl)methoxy)-1-(4-(pyridin-3-yl)-4-(3-(pyrrolidin-1-yl)propyl)piperidin-1-yl)ethanone], the inhibition at 10 µM was 97% on human B1R and 102% on B1R of the rat.

As to `O=C(CC(NS(=O)(=O)c1ccc2ccccc2c1)c1ccccc1)N1CCC(CCCN2CCCC2)(c2cccnc2)CC1` (stereo not drawn) [Example 17, N-(3-Oxo-1-phenyl-3-(4-(pyridin-3-yl)-4-(3-(pyrrolidin-1-yl)propyl)piperidin-1-yl)propyl)naphthalene-2-sulfonamide], the figures for the inhibition at 10 µM at human B1R and at B1R of the rat were 94% and 81%, respectively.

With `O=C(COCC1CCc2ccccc2N1S(=O)(=O)c1ccc(Cl)c(Cl)c1)N1CCC(CCCN2CCCC2)(c2cccnc2)CC1` (stereo not drawn) [Example 18, 2-((1-(3,4-Dichlorophenylsulfonyl)-1,2,3,4-tetrahydroquinolin-2-yl)methoxy)-1-(4-(pyridin-3-yl)-4-(3-(pyrrolidin-1-yl)propyl)piperidin-1-yl)ethanone], the inhibition at 10 µM was 62% on human B1R and 102% on B1R of the rat.

As for `Cc1cc(S(=O)(=O)N2CCCCC2CCC(=O)N2CCC(CCCN(C)C)(c3cccnc3)CC2)c(C)cc1Cl` (stereo not drawn) [Example 19, 3-(1-(4-Chloro-2,5-dimethylphenylsulfonyl)piperidin-2-yl)-1-(4-(3-(dimethylamino)propyl)-4-(pyridin-3-yl)piperidin-1-yl)propan-1-one], the inhibition at 10 µM at human B1R turned out to be 82%; on B1R of the rat, 98%.

As to `CN(C)CCCC1(c2cccnc2)CCN(C(=O)CC(NS(=O)(=O)c2ccc3ccccc3c2)c2ccccc2)CC1` (stereo not drawn) [Example 20, N-(3-(4-(3-(Dimethylamino)propyl)-4-(pyridin-3-yl)piperidin-1-yl)-3-oxo-1-phenylpropyl)naphthalene-2-sulfonamide], the inhibition at 10 µM on human B1R came to 57%; on B1R of the rat it was 94%.

On to `CN(C)CCCC1(c2cccnc2)CCN(C(=O)COCC2CCc3ccccc3N2S(=O)(=O)c2ccc(Cl)c(Cl)c2)CC1` (stereo not drawn) [Example 21, 2-((1-(3,4-Dichlorophenylsulfonyl)-1,2,3,4-tetrahydroquinolin-2-yl)methoxy)-1-(4-(3-(dimethylamino)propyl)-4-(pyridin-3-yl)piperidin-1-yl)ethanone], for which the inhibition at 10 µM came out at 56% on human B1R and 98% on B1R of the rat.

As to `COc1cc(C)c(S(=O)(=O)N2CCCCC2COCC(=O)N2CCC(CCCN(C)C)(c3cccnc3)CC2)c(C)c1` (stereo not drawn) [Example 22, 1-(4-(3-(Dimethylamino)propyl)-4-(pyridin-3-yl)piperidin-1-yl)-2-((1-(4-methoxy-2,6-dimethylphenylsulfonyl)piperidin-2-yl)methoxy)ethanone], the inhibition at 10 µM is 98% on human B1R and 102% on B1R of the rat.

Turning to `COc1cc(C)c(S(=O)(=O)N(C)CCOCC(=O)N2CCC(CCCN(C)C)(c3cccnc3)CC2)c(C)c1` [Example 23, N-(2-(2-(4-(3-(Dimethylamino)propyl)-4-(pyridin-3-yl)piperidin-1-yl)-2-oxoethoxy)ethyl)-4-methoxy-N,2,6-trimethylbenzenesulfonamide], the inhibition at 10 µM on human B1R came out at 100%; on B1R of the rat it was 101%.

For the compound `CN(C)CCCC1(c2cccnc2)CCN(C(=O)CC2CCCCN2S(=O)(=O)c2cccc(C(F)(F)F)c2)CC1` (stereo not drawn) [Example 24, 1-(4-(3-(Dimethylamino)propyl)-4-(pyridin-3-yl)piperidin-1-yl)-2-(1-(3-(trifluoromethyl)phenylsulfonyl)piperidin-2-yl)ethanone], the inhibition at 10 µM at human B1R came to 38%; on B1R of the rat, 60%.

On to `COc1cc(C)c(S(=O)(=O)N2CCCC[C@H]2COCC(=O)N2CCC(CN3CCCC3)(c3cccnc3)CC2)c(C)c1` [Example 25, (S)-2-((1-(4-Methoxy-2,6-dimethylphenylsulfonyl)piperidin-2-yl)methoxy)-1-(4-(pyridin-3-yl)-4-(pyrrolidin-1-ylmethyl)piperidin-1-yl)ethanone], for which the values for the inhibition at 10 µM at human B1R and at B1R of the rat were 97% and 63%, respectively.

Turning to `COc1cc(C)c(S(=O)(=O)N2CCCCC2COCC(=O)N2CCC(CCCN3CCCC3)(c3cccnc3)CC2)c(C)c1` (stereo not drawn) [Example 26, 2-[[1-[(4-Methoxy-2,6-dimethyl-phenyl)sulfonyl]-piperidin-2-yl]-methoxy]-1-[4-pyridin-3-yl-4-(3-pyrrolidin-1-yl-propyl)-piperidin-1-yl]-ethanone], on human B1R, the “B1R antagonism, human [10 μM] % inhibition” value is recorded as 100%. Besides, the “B1R antagonism, rat [10 μM] % inhibition” value at B1R of the rat is on record as 103%.

With `COc1cc(C)c(S(=O)(=O)N2CCCCC2COCC(=O)N2CCC(CCCN3CCCC3)(c3cccnc3)CC2)c(C)c1` (stereo not drawn) [Example 27, 2-[[1-[(4-Methoxy-2,6-dimethyl-phenyl)sulfonyl]-piperidin-2-yl]-methoxy]-1-[4-pyridin-3-yl-4-(3-pyrrolidin-1-yl-propyl)-piperidin-1-yl]-ethanone], the “B1R antagonism, human [10 μM] % inhibition” value on human B1R was determined as 100%. Further, at B1R of the rat, the “B1R antagonism, rat [10 μM] % inhibition” value is listed as 102%.
